In patent publication US20230203029A1 (priority 2020, published 2023):
Read-outs that look alike come from different tables or passages of the source.

Key:
[1] = biological target: T1, human MERTK cytoplasmic domain (Homo sapiens, UniProt Q12866); test: biochemical; conditions: 30 uM ATP, read-out: Assay 1a Mer IC50 30 uM ATP
T1 construct: human MERTK cytoplasmic domain (Carna Biosciences 08-108); purchased Carna Biosciences 08-108
Description: Assay 1a—MERTK HTRF KinEASE-TK Assay
The enzymatic reaction was carried out for 30 min at room temperature. 10 μL TK Antibody-Cryptate/Streptavidin-XL665 (Cisbio 610SAXLG) was then added for 60 min, including EDTA containing detection buffer (Cisbio 62SDBRDF) to stop the reaction.

[2] = biological target: T2, recombinant human AXL expressed in live cells (HEK, AXL-Nanoluc fusion vector) (Homo sapiens, UniProt P30530); test: Assay 3 AXL cellular target engagement (NanoBRET TE) assay; type: cell-based
T2 construct: host or cells: HEK
T2 sequence (P30530 26-894): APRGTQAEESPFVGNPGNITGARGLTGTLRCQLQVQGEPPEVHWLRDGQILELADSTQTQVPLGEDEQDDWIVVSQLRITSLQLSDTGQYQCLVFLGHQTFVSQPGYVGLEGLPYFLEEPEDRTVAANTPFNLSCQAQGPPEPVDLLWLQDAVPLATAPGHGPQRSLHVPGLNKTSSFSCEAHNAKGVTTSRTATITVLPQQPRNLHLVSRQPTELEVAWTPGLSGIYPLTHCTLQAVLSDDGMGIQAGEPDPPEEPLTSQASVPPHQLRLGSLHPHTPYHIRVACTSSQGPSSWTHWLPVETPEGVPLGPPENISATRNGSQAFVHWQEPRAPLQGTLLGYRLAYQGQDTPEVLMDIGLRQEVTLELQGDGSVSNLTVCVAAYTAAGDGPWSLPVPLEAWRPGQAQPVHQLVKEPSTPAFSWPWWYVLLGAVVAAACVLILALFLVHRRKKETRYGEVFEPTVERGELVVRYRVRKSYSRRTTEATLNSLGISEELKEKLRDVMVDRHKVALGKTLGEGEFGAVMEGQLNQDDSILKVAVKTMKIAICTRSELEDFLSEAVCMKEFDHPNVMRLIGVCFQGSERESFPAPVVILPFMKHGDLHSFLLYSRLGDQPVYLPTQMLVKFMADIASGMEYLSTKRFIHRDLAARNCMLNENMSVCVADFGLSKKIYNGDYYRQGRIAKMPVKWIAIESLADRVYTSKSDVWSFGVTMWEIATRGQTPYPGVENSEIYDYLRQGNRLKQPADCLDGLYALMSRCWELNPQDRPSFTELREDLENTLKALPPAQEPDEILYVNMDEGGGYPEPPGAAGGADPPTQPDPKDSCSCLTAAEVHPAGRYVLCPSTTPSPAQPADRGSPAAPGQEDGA
Description: Assay 3—AXL Cellular Target Engagement (TE) Assay
Compound affinities for recombinant human AXL expressed in live cells were assessed via the Promega NanoBRET TE assay technology. Human Embryonic Kidney (HEK) cells were transiently transfected with the AXL-Nanoluc fusion vector (Promega Cat NV1071) using Fugene HD reagent (Promega E2311). […] Incubations were conducted for 2 h at 37° C., after which 20 μl NanoGlo substrate/inhibitor mix (Promega N2161) was added to each well for 2-3 min. The plate was then read on a BMG Pherastar FSX using a NanoBRET filter to record donor emission at 450 nm and acceptor fluorophore emission at 610 nm. From this the BRET ratio (acceptor 610 nm/donor 450 nm) for each data point was calculated.

[3] = biological target: T3, recombinant human MERTK expressed in live cells (HEK 293, MERTK-Nanoluc fusion vector) (Homo sapiens, UniProt Q12866); test: Assay 2 MERTK cellular target engagement (NanoBRET TE) assay; type: cell-based; conditions: HEK 293 cells, tracer K9, 2 h at 37° C.; read-out: Assay 2 Cell TE MER IC50
T3 construct: host or cells: HEK 293
T3 sequence (Q12866 21-999): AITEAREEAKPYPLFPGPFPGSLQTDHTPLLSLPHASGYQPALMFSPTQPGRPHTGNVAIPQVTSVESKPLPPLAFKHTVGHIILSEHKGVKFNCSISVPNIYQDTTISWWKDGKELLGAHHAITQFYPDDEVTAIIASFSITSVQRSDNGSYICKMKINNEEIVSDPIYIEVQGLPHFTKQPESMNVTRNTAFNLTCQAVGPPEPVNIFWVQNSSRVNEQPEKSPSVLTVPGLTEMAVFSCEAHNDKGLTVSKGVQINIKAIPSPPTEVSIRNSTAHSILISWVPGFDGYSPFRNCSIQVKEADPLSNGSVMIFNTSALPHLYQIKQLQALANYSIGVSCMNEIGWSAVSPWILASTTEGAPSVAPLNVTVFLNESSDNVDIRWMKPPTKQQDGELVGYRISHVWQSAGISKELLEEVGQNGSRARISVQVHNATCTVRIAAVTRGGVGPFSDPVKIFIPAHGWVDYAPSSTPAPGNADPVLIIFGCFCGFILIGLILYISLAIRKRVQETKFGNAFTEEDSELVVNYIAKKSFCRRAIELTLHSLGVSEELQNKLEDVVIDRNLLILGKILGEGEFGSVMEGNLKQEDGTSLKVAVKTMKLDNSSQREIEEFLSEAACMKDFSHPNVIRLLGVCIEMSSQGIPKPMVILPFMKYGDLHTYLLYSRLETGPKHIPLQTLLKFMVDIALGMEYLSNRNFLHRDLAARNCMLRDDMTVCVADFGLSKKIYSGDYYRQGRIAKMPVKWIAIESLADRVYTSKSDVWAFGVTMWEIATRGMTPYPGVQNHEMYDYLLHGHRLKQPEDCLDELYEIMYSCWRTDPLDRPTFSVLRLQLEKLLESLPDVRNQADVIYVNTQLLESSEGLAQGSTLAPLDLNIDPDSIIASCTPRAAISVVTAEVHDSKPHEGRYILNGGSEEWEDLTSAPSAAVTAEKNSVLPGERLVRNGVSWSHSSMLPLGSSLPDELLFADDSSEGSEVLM

[4] = biological target: T4, human AXL cytoplasmic domain (Homo sapiens, UniProt P30530); test: Assay 1b AXL HTRF KinEASE-TK assay; type: biochemical
T4 construct: human AXL cytoplasmic domain (Thermo Fisher A31515); purchased Thermo Fisher A31515
T4 sequence (P30530 473-894 limits assumed): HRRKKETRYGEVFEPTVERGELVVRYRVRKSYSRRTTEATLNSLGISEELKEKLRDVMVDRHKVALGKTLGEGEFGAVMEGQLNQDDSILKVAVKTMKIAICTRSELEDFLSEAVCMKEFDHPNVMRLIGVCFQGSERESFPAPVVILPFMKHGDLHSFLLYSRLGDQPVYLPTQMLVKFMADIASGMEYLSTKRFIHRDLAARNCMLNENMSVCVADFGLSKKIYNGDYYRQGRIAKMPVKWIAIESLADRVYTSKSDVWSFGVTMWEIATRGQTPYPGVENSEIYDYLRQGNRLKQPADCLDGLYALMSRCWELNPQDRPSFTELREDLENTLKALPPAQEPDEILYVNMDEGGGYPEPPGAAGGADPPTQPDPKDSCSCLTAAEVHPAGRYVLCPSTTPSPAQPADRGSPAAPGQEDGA
Summary of the method: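 Recombinant cytoplasmic domain (5 nM) in kinase buffer with 5 mM MgCl2, 1 mM MnCl2, 1 mM DTT, 50 nM SEB plus test compounds; reaction 30 min at room temperature. EDTA-containing detection with TK antibody-cryptate/streptavidin-XL665 for 60 min; HTRF 665/620 ratio read. IC50 from 4-parameter logistic fit with variable slope.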

[5] = * Maximal inhibition achieved 40%
[6] = HEK cells, tracer K5, 2 h at 37° C., read-out: Assay 3 Cell TE Axl IC50

SMILES | IC50 [1] [µM] | IC50 [2] [µM] | IC50 [3] [µM] | IC50 [1, 5] [µM] | IC50 [4] [µM] | IC50 [2, 6] [µM]
O=C(Nc1ccc(Nc2ccnc3cnc(N4CCCNCC4)cc23)cc1)c1cccn(-c2ccccc2)c1=O [Example 2.2, N-[4-[[6-(1,4-diazepan-1-yl)-1,7-naphthyridin-4-yl]amino]phenyl]-2-oxo-1-phenyl-pyridine-3-carboxamide] | 0.054 | 0.189 | 0.0237 | – | – | –
CN1CCC(n2cc(-c3cc4c(Nc5ccc(NC(=O)c6cccn(-c7ccccc7)c6=O)cc5)ccnc4cn3)cn2)CC1 [Example 4.1, N-[4-[[6-[1-(1-methyl-4-piperidyl)pyrazol-4-yl]-1,7-naphthyridin-4-yl]amino]phenyl]-2-oxo-1-phenyl-pyridine-3-carboxamide] | 0.037 | 0.133 | 0.131 | – | – | –
O=C(N[C@H]1CC[C@H](O)CC1)c1cc2c(Nc3ccc(NC(=O)c4cccn(-c5ccccc5)c4=O)cc3)ccnc2cn1 [Example 5, N-(4-hydroxycyclohexyl)-4-[4-[(2-oxo-1-phenyl-pyridine-3-carbonyl)amino]anilino]-1,7-naphthyridine-6-carboxamide] | 0.06 | 0.0975 | 0.0961 | – | – | –
O=C(NOCCO)c1cc2c(Nc3ccc(NC(=O)c4cccn(-c5ccccc5)c4=O)cc3)ccnc2cn1 [Example 5.1, N-(2-hydroxyethoxy)-4-[4-[(2-oxo-1-phenyl-pyridine-3-carbonyl)amino]anilino]-1,7-naphthyridine-6-carboxamide] | 0.07 | 0.335 | 0.135 | – | – | –
NC(=O)c1cc2c(Nc3ccc(NC(=O)c4cccn(-c5ccccc5)c4=O)cc3)ccnc2cn1 [Example 5.2, 4-[4-[(2-oxo-1-phenyl-pyridine-3-carbonyl)amino]anilino]-1,7-naphthyridine-6-carboxamide] | – | 0.363 | 0.174 | 0.017 | – | –
O=C(Nc1ccc(Oc2ccnc3cnc(N4CCNCC4)cc23)cc1)c1cccn(-c2ccccc2)c1=O [Example 12, 2-Oxo-1-phenyl-N-[4-[(6-piperazin-1-yl-1,7-naphthyridin-4-yl)oxy]phenyl]pyridine-3-carboxamide] | 0.011 | – | 0.0804 | – | 0.054 | 0.114

Continued by falling IC50 [3], values first:

IC50 [1] [µM] | IC50 [2] [µM] | IC50 [3] [µM] | IC50 [1, 5] [µM] | IC50 [4] [µM] | IC50 [2, 6] [µM] | SMILES
0.196 | 1.41 | 0.163 | – | – | – | O=C(Nc1ccc(Nc2ccnc3cnc(N4CCOCC4)cc23)cc1)c1cccn(-c2ccccc2)c1=O [Example 2.1, N-[4-[(6-morpholino-1,7-naphthyridin-4-yl)amino]phenyl]-2-oxo-1-phenyl-pyridine-3-carboxamide]
0.052 | 0.11 | 0.11 | – | – | – | CN1CCC(NC(=O)c2cc3c(Oc4ccc(NC(=O)c5cccn(-c6ccccc6)c5=O)cc4)ccnc3cn2)CC1 [Example 6, N-(1-methyl-4-piperidyl)-4-[4-[(2-oxo-1-phenyl-pyridine-3-carbonyl)amino]phenoxy]-1,7-naphthyridine-6-carboxamide]
0.031 | 0.0833 | 0.0956 | – | 0.06 | – | CN1CCC(NC(=O)c2cc3c(Oc4ccc(NC(=O)c5cccn(-c6ccccc6)c5=O)nc4)ccnc3cn2)CC1 [Example 28.2, N-(1-methyl-4-piperidyl)-4-[[6-[(2-oxo-1-phenyl-pyridine-3-carbonyl)amino]-3-pyridyl]oxy]-1,7-naphthyridine-6-carboxamide]
0.017 | – | 0.0808 | – | 0.31 | 0.127 | O=C(Nc1ccc(Oc2ccnc3cnc(N4CCNCC4)cc23)cn1)c1cccn(-c2ccccc2)c1=O [Example 32, 2-oxo-1-phenyl-N-[5-[(6-piperazin-1-yl-1,7-naphthyridin-4-yl)oxy]-2-pyridyl]pyridine-3-carboxamide]
– | 0.0467 | 0.0419 | 0.011 | – | – | CNC(=O)c1cc2c(Nc3ccc(NC(=O)c4cccn(-c5ccccc5)c4=O)cc3)ccnc2cn1 [Example 5.3, N-methyl-4-[4-[(2-oxo-1-phenyl-pyridine-3-carbonyl)amino]anilino]-1,7-naphthyridine-6-carboxamide]
0.006 | 0.0349 | 0.0261 | – | 0.012 | – | O=C(Nc1ccc(Oc2ccnc3cnc(N4CCNCC4)cc23)c(F)c1)c1cccn(-c2ccccc2)c1=O [Example 31, N-[3-fluoro-4-[(6-piperazin-1-yl-1,7-naphthyridin-4-yl)oxy]phenyl]-2-oxo-1-phenyl-pyridine-3-carboxamide]
